Measured values taken from US8865222B2, “Beta-casein assemblies for enrichment of food and beverages and methods of preparation thereof” (Technion Research and Development Foundation Ltd., priority 2008, dated 2014).

Experiments:
Assay type in all cases: physicochemical
[1] = Turbidity (solution absorbance at 600 nm); details: vitamin D 82.5 μg/ml, in the absence of beta-casein, pH 7.0 and 2.5
[2] = Visual comparison of vitamin D solubilization, clarity and precipitation with and without beta-casein
[3] = Vitamin D stability in aqueous solution, n-hexane extraction and Reversed Phase HPLC; details: pH 7 and pH 2.5, room temperature
Procedure: We further tested the stability of vitamin D:beta-casein solutions in both acidic and neutral pH environments. The solutions prepared were left for a week at room temperature and the sampling was made once a day (in the first three days of the experiment) and once every two days (toward the end of the experiment). Vitamin D was extracted by n-hexane from each sample and its amount was analyzed using Reversed Phase HPLC. The amount of the vitamin left was compared to the amount extracted at time 0. The experiment was performed at two different pH values (pH 7 and pH 2.5).

- turbidity [1]: sudden increase in turbidity value
- precipitation ([2]; PBS, in the absence of beta-casein, after a week): not observed
- precipitation ([2]; PBS, in the presence of beta-casein, after a week): not observed
- aggregation out of solution ([2]; lactic acid buffer pH 2.5, no beta-casein, after a week): white precipitation
- precipitation ([2]; lactic acid buffer pH 2.5 with beta-casein 0.5% wt, molar ratio 2:1, after a week): not observed
- vitamin D stability (amount left versus time 0) ([3]; in the presence of beta-casein, one week): degradation process is much slower
Compound: C=C1CC[C@H](O)C/C1=C/C=C1\CCC[C@]2(C)[C@@H]([C@H](C)/C=C/[C@H](C)C(C)C)CC[C@@H]12 [vitamin D, ergocalciferol]
- vitamin D stability (amount left versus time 0) ([3]; vitamin D alone, aqueous solution): degrades rapidly leaving almost no trace after only two days
